Results published in US20140243302A1, “BRIDGED BICYCLIC COMPOUNDS FOR THE TREATMENT OF BACTERIAL INFECTIONS” (priority 2011, published 2014).

Legend:
Assay type in all cases: cell-based
[1] = test system: Pseudomonas aeruginosa PAO1; assay: MIC assay, modified agar dilution (CLSI), P. aeruginosa PAO1
Method: (§1) The potency of antibacterial agents was measured using the Minimal Inhibitory Concentration (MIC) assay. The assay measures the ability of test agents to inhibit the growth of bacteria on agar-containing medium.
(§2) Mueller Hinton Agar (MHA BBL; Becton Dickinson and Company, Sparks, Md.) was used as the medium. MHA was supplemented with 5% defibrinated horse blood (DHB; Nippon Biotest Laboratories inc.) to support the growth of S. pneumoniae and E. faecium.
(§3) MIC values were determined using a modified agar dilution procedure described by the Clinical and Laboratory Standards Institute (CLSI; Methods for Dilution Antimicrobial Susceptibility Tests for Bacteria That Grow Aerobically; Approved Standard—Eighth Edition. CLSI document M07-A8 [ISBN 1-56238-689-1]. Clinical and Laboratory Standards Institute, 940 West Valley Road, Suite 1400, Wayne, Pa. 19087-1898 USA, 2009).
(§4) Stock solutions (6.4 mgmL) of test compounds were prepared in 100% ultrapure dimethyl sulfoxide (DMSO; source) on the day of the assay. Subsequent serial dilutions were performed to generate solutions with concentrations ranging from 6.4 to 0.0002 mgmL in 100% DMSO.
(§5) Agar medium containing test compound was prepared by adding the dilutions of antimicrobial solution to molten MHA at a temperature of 45-50° C. […]

[2] = test system: Streptococcus pneumoniae IID554; assay: MIC assay, modified agar dilution (CLSI), S. pneumoniae IID554; settings: agar dilution, MHA with 5% defibrinated horse blood
Method: as §1
(§6) The bacterial test strains used were exemplified by Staphylococcus aureus Smith, Enterococcus faecium A2373, Streptococcus pneumoniae IID554, and Escherichia coli ATCC 25922. All strains were maintained as frozen stocks held at −80° C. in skim milk. Other bacterial test strains are well known to those skilled in the art and can be used for testing.
as §2, §3, §4
Agar medium containing test compound was prepared by adding the dilutions of antimicrobial solution to molten MHA at a temperature of 45-50° C. The agar and antimicrobial solution were mixed thoroughly, poured into petri dishes, and allowed to solidify at room temperature. The final concentration of test compounds in the MHA medium ranged from 128 to 0.001 μg/mL with two-fold dilutions. MHA plates lacking antibacterial compound were used for growth controls.
Prior to susceptibility testing, the bacterial isolates were removed from frozen storage, thawed at room temperature, sub-cultured to MHA medium and incubated overnight at 35° C. S. pneumoniae and E. faecium were subcultured on MHA supplemented with 5% DHB at 35° C. with […]. Colonies from each plate were suspended in normal saline. This suspension was adjusted to the turbidity of a 0.5 McFarland standard, 1-2×10^8 colony forming units (CFU) per mL, and diluted 100-fold to 1-2×10^6 CFUmL.
Suspensions of bacterial cultures were applied to the surface of MHA plates containing test compound as well as to a growth control plate lacking test compound using an inoculum-replicating device with 4 mm pins. The replicating device applied 5 uL of the bacterial suspension such that each spot contained approx. 1×10^4 CFU. […]

[3] = test system: Escherichia coli ATCC 25922; assay: MIC assay, modified agar dilution (CLSI), E. coli ATCC 25922
Method: as §1, §6, §2, §3
Stock solutions (6.4 mgmL) of test compounds were prepared in 100% ultrapure dimethyl sulfoxide (DMSO; source) on the day of the assay. […]

[4] = test system: Staphylococcus aureus Smith; assay: MIC assay, modified agar dilution (CLSI), S. aureus Smith; settings: Staphylococcus aureus, agar dilution, 35° C., 16-20 hr; lowest concentration that completely inhibited growth; read-out: S_aureus_Smith_WT_MIC
In short: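 Agar dilution per CLSI on Mueller Hinton agar (plus 5% horse blood for S. pneumoniae and E. faecium), compound 128 to 0.001 μg/mL in two-fold steps. Spots of ~1×10^4 CFU incubated at 35 °C for 16-20 hr before MIC scoring.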

A_bau_IID876 = assay: MIC assay, modified agar dilution (CLSI), A_bau_IID876
Method: as §1, §2, §3, §4, §5

MIC [4]: 0.016 µg/mL
Compound: COc1ccc2ncc(F)c(CCC34CCC(NCc5ccc6c(n5)NC(=O)CO6)(CC3)CO4)c2n1.Cl [Example 18, 6-((1-(2-(3-Fluoro-6-methoxy-1,5-naphthyridin-4-yl)ethyl)-2-oxabicyclo[2.2.2]octan-4-ylamino)methyl)-2H-pyrido[3,2-b][1,4]oxazin-3(4H)-one Hydrochloride]
P_ae_PAO1_WT_MIC [1]: 4.00 µg/mL | Strep_Pn_IID554_WT_MIC [2]: 0.0630 µg/mL | E_coli_ATCC25922_WT_MIC [3]: 1.00 µg/mL | A_bau_IID876_WT_MIC (A_bau_IID876): 0.500 µg/mL
